Values of other authors as cited in patent US8038645B2 (Bayer Technology Services GmbH, priority 2005, dated 2011).
Like-named read-outs stand apart in the source and are kept apart here.

Legend:
[1] = input parameter for PK-Sim
[2] = input parameter for PK-Sim; remark: listed apart in the source

For `CC(C)c1cccc(C(C)C)c1O` [propofol], the “Free plasma fraction (age-dependent)” value [1] is listed as 0.020-0.025, the “Blood clearance in ml/min: mean (std. dev.)” value (“Blood clearance in ml/min” for short) (Ickz et al., adults, mean age 45.2 years, 21 mg/kg/h for 5 min, then 12 mg/kg/h for 10 min, then 6 mg/kg/h) is listed as 33.8 (7.8) ml/min and the “Blood clearance in ml/min” value (Kanto et al., pregnant women, mean age 27.1 years, 2.5 mg/kg bolus over 0.17 min) is listed as 27.5 (5.5) ml/min. For the same compound, the “Blood clearance in ml/min” value (Mertens et al., young men, mean age 24 years, 1 mg/kg bolus over 1 min, then 3 mg/kg/h) was 31.2 (2.8) ml/min, the “Blood clearance in ml/min” value (Raoof et al., children, mean age 1.9 years, 3 mg/kg iv) was 38.7 (6.8) ml/min and the “Blood clearance in ml/min” value (Saint-Maurice et al., children, mean age 5.5 years, 2.5 mg/kg bolus over 0.33 min) was 30.6 (2.9) ml/min. For the same compound, the “Blood clearance in ml/min” value (Valtonen et al., children, mean age 6.5 years, 2.5 mg/kg bolus over 0.5 min) was 32.0 (16.8) ml/min, the “Clearance (age-dependent)” value (input parameter for PK-Sim) was 29 to 50 mL/min/kg and the Lipophilicity [2] was 2.6.
